Measurements as given in patent publication US20230104487A1, “11-(4-CHLOROPHENYL)-4-(2,3-DIHYDRO-1H-INDOLE-1-CARBONYL)-3,11-DIMETHYL-5,10,DIOXATRICYCLO[7.4.0.0,2,6,]TRIDECA-1,3,6,8-TETRAEN-13-ONE AND DERIVATIVES AS DESTABILIZER OF CRY1 FOR THE TREATMENT OF CIRCADIAN RHYTHM ASSOCIATED DISEASES AND DISORDERS” (KOC UNIVERSITESI, priority 2019, published 2023).
Entries after “also recorded” stand apart in the source; their conditions may differ.

Key:
U2-OS cells = assay: Cell cytotoxicity test (MTT); type: cell-based, human; settings: dose dependent
Protocol: Human osteosarcoma U2-OS cell lines were used for the cytotoxicity assay. Cells were seeded in triplicate to clear 96-well plates with 4000 cells/well then grown for 48 h. Cells were treated with molecules at desired concentrations (final DMSO concentration 0.5%) in DMEM. Cells were incubated with molecules for 48 h. Cell viability was measured by adding tetrazolium dye 3-[4,5-dimethylthiazol-2-yl]-2,5 diphenyl tetrazolium bromide (MTT) which is converted to insoluble purple color formazan as a result of the mitochondrial activity. To measure the purple color after incubating cells with MTT reagent medium was replaced with DMSO:EtOH (50:50) mixture for 4 hours and absorbance of wells were measured at 570 nm by the spectrophotometer. Cells treated with 5% final DMSO concentration (known as toxic to cells) as […] controls.
Initially, toxicity of selected molecules was assessed by MTT using immortalized human osteosarcoma (U2-OS) cells at concentrations of 20 μM, 10 μM and, 2.5 μM. Molecules with relative cell viability less than 90% at 2.5 μM were eliminated. […] In this assay the effect of the 14 molecules were measured according to the CRYL::LUC decay rate. […] Then cells were treated with cycloheximide (CHX) to inhibit the protein synthesis and bioluminescence was recorded for 18 h. […]

[1] = Plasma pharmacokinetics in mice; type: in vivo; settings: female, C57BL/6J, mouse, ip, 100 mg/kg, single dose, i.p., read-out: AUC0-24
U2-OS Bmal1-dLuc cells = assay: Real-time monitoring of circadian rhythm, U2-OS Bmal1-dLuc; type: cell-based, human
Protocol: This assay was performed with two different equipment: Synergy H1 (BioTek) with 96-well plate and LumiCycle luminometer (Actimetrics) with 35 mm plates. Initial screening of molecules to determine their effect on the circadian period was performed in 96-well plate via Synergy H1. Clear 35-mm plates are used in LumiCycle luminometer which provides high resolution data describing the circadian oscillation. For 96-plate tests, 50000 U2-OS Bmal1-dLuc cells were seeded on an opaque 96-well plate and cultured overnight. Next day cells were reset by adding dexamethasone (DXM) ([…] final) for 2 h. Then medium is changed to bioluminescence recording media which contains the following in 1 L: DMEM powder (sigma D-2902, 10×1 L), 0.35 gr sodium bi-carbonate (tissue culture grade, sigma S5761), 3.5 gr D (+) glucose powder (tissue culture grade, sigma G7021), 10 mL 1M HEPES buffer (Gibco 15140-122), 2.5 mL Pen/Strep (100 ug/ml), 50 mL 5% FBS and up to 1 L sterile milliQ water. Luciferin is added freshly with 0.1 mM final concentration. Molecules were added to the bioluminescence recording media at desired concentration (0.5% final DMSO concentration). Plates were sealed with optically clear film to prevent evaporation and gas exchange thereby to maintain homeostasis of the cells.
Luminescence values were recorded at 32° C. for each 30 minutes with 15 seconds integration time via Synergy H1 luminometer for a week. For LumiCycle, 400×10^3 U2-OS Bmal1-dLuc or NIH3T3 mPer2-dLuc cells were seeded to 35 mm plates and then procedure given above was followed with a change in the last step. Plates were sealed with vacuum grease and placed to LumiCycle. Each plate was recorded continuously every 10 minutes for 70 seconds at 37° C. via photomultiplier tubes. Period and amplitude data were obtained from LumiCycle Analysis software. To detect the effect of FORMULA I in the absence of CRYs, Cry1^−/−/Cry2^−/− mouse embryonic fibroblasts (CRYDKO MEFs) transiently transfected with pGL3-Per2-Luc (luciferase reporter) were used. 3×10^5 CRYDKO cells were seeded in 35 mm clear plates. Next day, cells were transfected with 4000 ng pGL3-Per2-Luc via Fugene6 transfection reagent according to the manufacturer's instruction. In short, 3:1 ratio of Fugene6 in μl against transfected DNA amount in μg was kept in transfections. 72 h after transfection cells were synchronized with DXM for two hours. Then, medium was changed with lumicycle medium having DMSO or molecule, sealed with vacuum grease, and placed to LumiCycle.

C57BL/6J mice = assay: Repeated dose toxicity study, 5-day maximum tolerated dose; type: in vivo
Protocol: The single dose toxicity data were used to assist the selection of the doses in this repeated dose toxicity study. C57BL/6J mice (n=6 per group) were treated with 40, 80 or 150 mg/kg doses of FORMULA I intraperitoneally for 5 days. Control mice (n=4) were only treated with vehicle (DMSO:Cremophor EL:0.9% NaCl; 2.5:15:82.5, v/v, i.p.). Throughout the study, animals were monitored for mortality, clinical signs, body weight changes, body temperature, food and water consumptions, behaviour assessment and gross findings at the terminal necropsy. Body weights and body temperatures of mice were measured every day as an index of toxicity. Within 48 h after the last dose of FORMULA I administration, blood was collected from mice by cardiac puncture under isoflurane anesthesia. Hematological and biochemical analyzes were performed in blood. Liver, spleen, kidneys and lungs were removed and fixed in 10% formalin solution for histological examinations.

[2] = 150 mg/kg i.p. for 5 days, 3th day of injection

Compound: Cc1c(C(=O)N2CCc3ccccc32)oc2ccc3c(c12)C(=O)CC(C)(c1ccc(Cl)cc1)O3 (centres unmarked) [FORMULA I, 11-(4-chlorophenyl)-4-(2,3-dihydro-1H-indole-1-carbonyl)-3,11-dimethyl-5,10,dioxatricyclo[7.4.0.0,2,6,]trideca-1,3,6,8-tetraen-13-one]
- toxicity on U2-OS cells (U2-OS cells): no effect on the stability of LUC and any toxic effect
- AUC(0-t) [1]: 4920 ± 3070 ng·h/mL
- EC50 (U2-OS Bmal1-dLuc cells; Homo sapiens, U2OS, U2-OS Bmal1-dLuc, read-out: EC50 of period lengthening and rhythm dampening): ~6.5 µM
- activity / dose responsive effect on circadian rhythm (U2-OS Bmal1-dLuc cells; U2-OS Bmal1-dLuc): showed the best dose responsive effect
- effect on amplitude of the rhythm (U2-OS Bmal1-dLuc cells; dose-dependent): dampened the rhythm
- effect on period of circadian rhythm (U2-OS Bmal1-dLuc cells; dose-dependent): significantly lengthened the period; also recorded: lengthened the circadian rhythm dose dependently
- body temperature (C57BL/6J mice; 40 mg/kg i.p. for 5 days): comparable to the control animals
- clinical signs (C57BL/6J mice; 150 mg/kg i.p. for 5 days): hyporeflexia
- deaths (C57BL/6J mice; [2]): 1/6
- mortality (C57BL/6J mice; [2]): 16.6%
- highest mean body weight loss (C57BL/6J mice; 150 mg/kg i.p., 3rd day of injection): 6.3%
- clinical signs (C57BL/6J mice; 40 and 80 mg/kg i.p. for 5 days): no observed clinical signs
- body temperature (mild hypothermia) (C57BL/6J mice; 80 and 150 mg/kg i.p., first day): 33.4-35.8 °C
- tolerability (C57BL/6J mice; doses of 5 and 80 mg/kg (so in the source), 5 days): well-tolerated
